Where two headings read alike, the source gives them in different places.
Tests used:
HEK293T cells [1] = settings: for reduction in cell number / cells killed: inhibitor 40 nM combined with compound 56 (90 nM or 270 nM)
in vitro = settings: human
MELK [2] = target: T1, MELK (Homo sapiens, UniProt Q14680); settings: FACS-sorted β-cells, vs vehicle; cited from earlier work
human β-cells [3] = settings: cited from earlier work
DYRK1A [4] = target: T2, DYRK1A (Homo sapiens, UniProt Q13627); assay: Kinome SCAN profile, DYRK1A; type: binding; settings: read-out: DYRK1A residual activity
468 kinases = assay: Kinome SCAN profile; type: binding; settings: 100 nM
human β-cells [5] = assay: Human islet β-cell replication
HEK293T cells [6] = assay: Constitutive Renilla luciferase; type: cell-based; settings: for fold reduction of cytotoxicity (R-Luc CC50): compared to OTS167 / parent; for R-Luc CC50: HEK293T cells, constitutive Renilla luciferase drops by 50%, 48 h; for Index (CC50/EC50), Cytotoxicity / Activity Index: R-Luc CC50 / DYRK1A-Luc EC50, HEK293T
DYRK1A [7] = target: T2, DYRK1A; assay: DYRK1A NFAT luciferase response assay; type: cell-based; settings: for DYRK1A-Luc EC50: HEK293T reporter cells, NFAT-dependent firefly luciferase, 48 h
[8] = Caco-2 permeability assay; type: in vitro ADME; settings: 10 μM, pH 7.4, direction not stated
[9] = Microsome stability assay, human liver microsomes; type: in vitro ADME; settings: 1 μM compound, NADPH
[10] = Microsome stability assay, mouse liver microsomes; type: in vitro ADME; settings: 1 μM compound, NADPH
MELK [11] = target: T1, MELK; assay: MELK kinase binding assay

T1 sequence (Q14680 whole entry): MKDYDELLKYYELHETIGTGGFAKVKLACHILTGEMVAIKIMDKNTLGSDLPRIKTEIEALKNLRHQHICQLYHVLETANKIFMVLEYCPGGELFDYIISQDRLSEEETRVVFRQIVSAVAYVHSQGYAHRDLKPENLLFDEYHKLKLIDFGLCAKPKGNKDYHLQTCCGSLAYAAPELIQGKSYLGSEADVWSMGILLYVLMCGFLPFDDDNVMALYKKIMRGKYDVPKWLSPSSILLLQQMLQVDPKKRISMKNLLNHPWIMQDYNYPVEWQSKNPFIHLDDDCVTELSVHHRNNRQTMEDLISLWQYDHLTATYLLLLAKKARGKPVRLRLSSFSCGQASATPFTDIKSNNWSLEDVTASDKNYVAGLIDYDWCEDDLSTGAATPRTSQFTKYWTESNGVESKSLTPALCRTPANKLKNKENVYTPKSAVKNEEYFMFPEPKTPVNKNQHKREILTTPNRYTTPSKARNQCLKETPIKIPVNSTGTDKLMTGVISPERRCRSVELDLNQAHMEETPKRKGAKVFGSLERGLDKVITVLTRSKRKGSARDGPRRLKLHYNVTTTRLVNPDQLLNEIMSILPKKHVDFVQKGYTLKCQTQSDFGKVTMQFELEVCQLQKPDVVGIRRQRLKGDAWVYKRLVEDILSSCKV

**Q.** For O=C(NC[C@H](O)CO)c1ccncc1Nc1ccc(I)cc1F [AS-703026], which cells killed (HEK293T cells [1]; inhibitor 10 uM combined with 56 (90 nM), 48 h) is on record?
**A.** 6%

**Q.** What does the source list for CCN(CCO)CCCOc1ccc2c(Nc3cc(CC(=O)Nc4cccc(F)c4)[nH]n3)ncnc2c1 [AZD-1152-HQPA]?
**A.** reduction in cell number / cells killed (HEK293T cells [1]; 48 h): 67%; CC50 at 48 h (in vitro): 38.9 nM

**Q.** Which “induction of MELK expression” value (MELK [2]) does the source give for c1cc(OCCN2CCCCC2)cc(-c2n[nH]c3ccc(-c4nc[nH]n4)cc23)c1 [CC-401] here?
**A.** 2.6 fold

**Q.** For Nc1ncnc2c1c(I)cn2[C@@H]1O[C@H](CO)[C@@H](O)[C@H]1O [Compound 5-IT, 5-iodotubercidin], which “human β-cell replication induction-potency [ECmin]” value (human β-cells [3]) is on record?
**A.** ~ 100 nM

**Q.** For CC(=O)c1cnc2ccc(-c3cc(Cl)c(O)c(Cl)c3)nc2c1N[C@H]1CC[C@H](CN(C)C)CC1 [Compound 5], which remaining binding at 0.1 µM (DYRK1A [4]) is on record?
**A.** < 1%

**Q.** And the “kinases inhibited to less than 35% of baseline activity” value (468 kinases)?
**A.** 189/403

**Q.** And the “kinases with <1% residual activity” value (468 kinases)?
**A.** 69/403

**Q.** What about the “dose range in which β-cell replication occurred” value (human β-cells [5]) of the same molecule?
**A.** 5 to 40 nM

**Q.** With CCOC(=O)c1cnc2ccc(-c3cc(Cl)c(O)c(Cl)c3)nc2c1N[C@H]1CC[C@H](CN(C)C)CC1 [Compound 15, Ethyl-6-(3,5-dichloro-4-hydroxyphenyl)-4-(((trans)-4 ((dimethylamino)methyl)cyclohexyl)amino)-1,5-naphthyridine-3-carboxylate] as the molecule, how does the “fold reduction of cytotoxicity (R-Luc CC50)” value (from here on “fold reduction of cytotoxicity”) (HEK293T cells [6]; HEK293T) read?
**A.** ~ 3 fold

**Q.** With CN(C)C[C@H]1CC[C@H](Nc2c(C#N)cnc3ccc(-c4cc(Cl)c(O)c(Cl)c4)nc23)CC1 [Compound 16, 6-(3,5-Dichloro-4-hydroxyphenyl)-4-(((trans)-4-((dimethylamino)methyl)cyclohexyl)amino)-1,5-naphthyridine-3-carbonitrile] as the molecule, how does the “R-Luc CC50” value (HEK293T cells [6]) read?
**A.** virtually non-toxic

**Q.** What about the “fold reduction in DYRK1A inhibition potency” value (DYRK1A [7]; compared to OTS167) of the same molecule?
**A.** ~ 9 fold

**Q.** Which “fold reduction of cytotoxicity” value (HEK293T cells [6]; HEK293T) does the source give for CCOC(=O)c1cnc2ccc(-c3cc(Cl)c(O)c(Cl)c3)nc2c1Nc1ccc(CN(C)C)cc1 [Compound 27, Ethyl 6-(3,5-dichloro-4-hydroxyphenyl)-4-((4-((dimethylamino)methyl)phenyl)amino)-1,5-naphthyridine-3-carboxylate] here?
**A.** ~ 60 fold

**Q.** And the “DYRK1A-Luc EC50” value (DYRK1A [7])?
**A.** maintained DYRK1A inhibition potency

**Q.** With CCOC(=O)c1cnc2ccc(-c3cc(Cl)c(O)c(Cl)c3)nc2c1N[C@H]1CC[C@H](C)CC1 [Compound 32, Ethyl 6-(3,5-dichloro-4-hydroxyphenyl)-4-(((trans)-4-methylcyclohexyl)amino)-1,5-naphthyridine-3-carboxylate] as the molecule, how does the “DYRK1A-Luc EC50” value (DYRK1A [7]) read?
**A.** eliminated cellular activity

**Q.** For CCOC(=O)c1cnc2ccc(-c3cc(Cl)c(O)c(Cl)c3)nc2c1NC1CCN(C)CC1 [Compound 34, Ethyl 6-(3,5-dichloro-4-hydroxyphenyl)-4-((1-methylpiperidin-4-yl)amino)-1,5-naphthyridine-3-carboxylate], which Caco-2 [8] is on record?
**A.** 4.6 1 x 10^−6 cm/s

**Q.** And the “fold increase in the Cytotoxicity / Activity Index” value (HEK293T cells [6]; compared to OTS167)?
**A.** ~ 13 fold

**Q.** What about the “fold reduction of cytotoxicity” value (HEK293T cells [6]; HEK293T) of the same molecule?
**A.** ~ 16 fold

**Q.** Which “R-Luc CC50” value (HEK293T cells [6]) does the source give for CCOC(=O)c1cnc2ccc(-c3cc(Cl)c(O)c(Cl)c3)nc2c1N1CCCCC1 [Compound 35, Ethyl 6-(3,5-dichloro-4-hydroxyphenyl)-4-(piperidin-1-yl)-1,5-naphthyridine-3-carboxylate] here?
**A.** reduced cytotoxicity

**Q.** And the “DYRK1A-Luc EC50” value (DYRK1A [7])?
**A.** reduced DYRK1A inhibition potency

**Q.** Which “R-Luc CC50” value (HEK293T cells [6]) does the source give for CCOC(=O)c1cnc2ccc(-c3cc(Cl)c(O)c(Cl)c3)nc2c1N1CCC(C)CC1 [Compound 36, Ethyl 6-(3,5-dichloro-4-hydroxyphenyl)-4-(4-methylpiperidin-1-yl)-1,5-naphthyridine-3-carboxylate] here?
**A.** reduced cytotoxicity

**Q.** And the “DYRK1A-Luc EC50” value (DYRK1A [7])?
**A.** reduced DYRK1A inhibition potency

**Q.** What does the source list for CCOC(=O)c1cnc2ccc(-c3cc(Cl)c(O)c(Cl)c3)nc2c1N1CCOCC1 [Compound 37, Ethyl 6-(3,5-dichloro-4-hydroxyphenyl)-4-morpholino-1,5-naphthyridine-3-carboxylate]?
**A.** R-Luc CC50 (HEK293T cells [6]): reduced cytotoxicity; DYRK1A-Luc EC50 (DYRK1A [7]): reduced DYRK1A inhibition potency

**Q.** Which results are given for CCOC(=O)c1cnc2ccc(-c3cc(Cl)c(O)c(Cl)c3)nc2c1N1CCNCC1 [Compound 38, Ethyl 6-(3,5-dichloro-4-hydroxyphenyl)-4-(piperazin-1-yl)-1,5-naphthyridine-3-carboxylate]?
**A.** fold less toxic than butyl amide counterpart (R-Luc CC50) (HEK293T cells [6]; HEK293T): 7 fold; R-Luc CC50 (HEK293T cells [6]): reduced cytotoxicity; Index (CC50/EC50), Cytotoxicity / Activity Index (HEK293T cells [6]): 137; DYRK1A-Luc EC50 (DYRK1A [7]): reduced DYRK1A inhibition potency

**Q.** With CCOC(=O)c1cnc2ccc(-c3cc(Cl)c(O)c(Cl)c3)nc2c1N[C@H]1CC[C@H](C(=O)N(C)C)CC1 [Compound 42, Ethyl 6-(3,5-dichloro-4-hydroxyphenyl)-4-(((trans)-4-(dimethylcarbamoyl)cyclohexyl)amino)-1,5-naphthyridine-3-carboxylate] as the molecule, how does the Caco-2 [8] read?
**A.** 0.12 1 x 10^−6 cm/s

**Q.** With CCCCNC(=O)c1cnc2ccc(-c3cc(Cl)c(O)c(Cl)c3)nc2c1N[C@H]1CC[C@H](C(=O)N2CCOCC2)CC1 [Compound 47] as the molecule, how does the Caco-2 [8] read?
**A.** 9.1 1 x 10^−6 cm/s

**Q.** Which Caco-2 [8] does the source give for CCOC(=O)c1cnc2ccc(-c3cc(Cl)c(O)c(Cl)c3)nc2c1N[C@H]1CC[C@H](CC(N)=O)CC1 [Compound 49, Ethyl 4-(((trans)-4-(2-amino-2-oxoethyl)cyclohexyl)amino)-6-(3,5-dichloro-4-hydroxyphenyl)-1,5-naphthyridine-3-carboxylate] here?
**A.** 0.01 1 x 10^−6 cm/s

**Q.** Which “DYRK1A-Luc EC50” value (DYRK1A [7]) does the source give for CCOC(=O)c1cnc2ccc(-c3cc(Cl)cc(Cl)c3)nc2c1N[C@H]1CC[C@H](CN(C)C)CC1 [Compound 50, Ethyl 6-(3,5-dichlorophenyl)-4-(((trans)-4-((dimethylamino)methyl)cyclohexyl)amino)-1,5-naphthyridine-3-carboxylate] here?
**A.** abrogated DYRK1A-inhibition

**Q.** For CCOC(=O)c1cnc2ccc(-c3cc(C)c(O)c(C)c3)nc2c1N[C@H]1CC[C@H](CN(C)C)CC1 [Compound 52, Ethyl 4-(((trans)-4-((dimethylamino)methyl)cyclohexyl)amino)-6-(4-hydroxy-3,5-dimethylphenyl)-1,5-naphthyridine-3-carboxylate], which “Index (CC50/EC50), Cytotoxicity / Activity Index” value (HEK293T cells [6]) is on record?
**A.** > 842

**Q.** For CCOC(=O)c1cnc2ccc(-c3ccncc3)nc2c1N[C@H]1CC[C@H](CN(C)C)CC1 [Compound 56, Ethyl 4-(((trans)-4-((dimethylamino)methyl)cyclohexyl)amino)-6-(pyridin-4-yl)-1,5-naphthyridine-3-carboxylate], which “cytotoxicity (cell number)” value (HEK293T cells [1]; 56 alone at 30 nM, 90 nM or 270 nM, 48 h) is on record?
**A.** no cytotoxicity

**Q.** What about the “HLM t1/2” value [9] of the same molecule?
**A.** readily metabolized

**Q.** And the “MLM t1/2” value [10]?
**A.** readily metabolized

**Q.** And the Caco-2 [8]?
**A.** 4.03 1 x 10^−6 cm/s

**Q.** What about the Kd (MELK [11]) of the same molecule?
**A.** 15 nM

**Q.** For CCNC(=O)c1cnc2ccc(-c3ccnc(N)c3)nc2c1N[C@H]1CC[C@H](CN(C)C)CC1 [Compound 60, 6-(2-Aminopyridin-4-yl)-4-(((trans)-4-((dimethylamino)methyl)cyclohexyl)amino)-N-ethyl-1,5-naphthyridine-3-carboxamide], which “DYRK1A-Luc EC50” value (DYRK1A [7]) is on record?
**A.** maintained good DYRK1A activity

**Q.** Which results are given for CCOC(=O)c1cnc2ccc(-c3ccnc(N)c3)nc2c1N[C@H]1CC[C@H](CN2CCOCC2)CC1 [Compound 63, Ethyl 6-(2-aminopyridin-4-yl)-4-(((trans)-4-(morpholinomethyl)cyclohexyl)amino)-1,5-naphthyridine-3-carboxylate]?
**A.** HLM t1/2 [9]: readily metabolized; MLM t1/2 [10]: readily metabolized; Caco-2 [8]: 2.7 1 x 10^−6 cm/s

**Q.** With CC(C)Oc1ccc(F)c(-c2cnc(N)c(C(=O)Nc3cnccc3N3CCC[C@@H](C(=O)O)C3)n2)c1 [GNF-4877] as the molecule, how does the “human β-cell replication induction-potency [ECmin]” value (human β-cells [3]) read?
**A.** ~ 100 nM

**Q.** For COc1ccc2c(c1)[nH]c1c(C)nccc12 [Harmine, harmine], which “human β-cell replication induction-potency [ECmin]” value (human β-cells [3]) is on record?
**A.** ~ 3,000 nM

**Q.** What does the source list for O=C(O)[C@]1(Cc2cccc(Nc3nccs3)n2)CC[C@@H](Oc2cccc(Cl)c2F)CC1 [MK-5108]?
**A.** cells killed (HEK293T cells [1]; MK 3 μM with 56 at 30 nM, 48 h): 31%; cells killed (HEK293T cells [1]; MK 3 μM with 56 at 90 nM, 48 h): 36%; cells killed (HEK293T cells [1]; MK 3 μM with 56 at 270 nM, 48 h): 34%; CC50 at 48 h (in vitro; HEK293T cells): > 10000 nM

**Q.** With O=C(O)c1ccc(Nc2ncc3c(n2)-c2ccc(Cl)cc2C(c2c(F)cccc2F)=NC3)cc1 [MLN-8054] as the molecule, how does the “reduction in cell number / cells killed” value (HEK293T cells [1]; 48 h) read?
**A.** 50%

**Q.** And the CC50 at 48 h (in vitro)?
**A.** 55.1 nM

**Q.** Which cytotoxicity in combination (HEK293T cells [1]; TAK-733 10 uM combined with 56 (30 nM, 90 nM, or 270 nM)) does the source give for Cn1c(=O)c(F)c(Nc2ccc(I)cc2F)c2c(=O)n(C[C@@H](O)CO)cnc21 [TAK-733] here?
**A.** did not exhibit cytotoxicity

**Q.** What about the cells killed (HEK293T cells [1]; inhibitor alone at 10 uM, 48 h) of the same molecule?
**A.** did not exhibit cytotoxicity

Source: PMC6941846 (Bioorganic & medicinal chemistry, 2019)
